Laboratory results taken from a compilation of properties of binary mixtures (doi:10.1021/jp2012254).

Test: xn = mol fraction of the nth substance listed
Settings: 298 K, 101 kPa

CCCC[n+]1ccn(C)c1.O=S(=O)([N-]S(=O)(=O)C(F)(F)F)C(F)(F)F + CO
Settings	electrical conductivity [S/m]	viscosity [mPa·s]
x1 = 0.0104	0.94	–
x1 = 0.0197	–	0.71
x2 = 0	–	50.4
x2 = 0.0302	0.524	46.2
x2 = 0.0942	0.509	–
x2 = 0.1177	0.549	–
x2 = 0.1279	0.509	–
x2 = 0.1577	–	35.8
x2 = 0.16	–	34.2
x2 = 0.1706	0.514	–
x2 = 0.2298	–	28.8
x2 = 0.3938	0.651	–
x2 = 0.432	0.99	–
x2 = 0.5555	1.18	–
x2 = 0.6132	1.74	–
x2 = 0.6242	–	8.27
x2 = 0.662	1.89	–
x2 = 0.6647	1.96	–
x2 = 0.7009	2.12	–
x2 = 0.7546	2.28	–
x2 = 0.7799	2.29	–
x2 = 0.7983	2.45	–
x2 = 0.8188	2.49	–
x2 = 0.8248	–	2.61
x2 = 0.8272	2.51	–
x2 = 0.8805	2.58	–
x2 = 0.8953	–	1.47
x2 = 0.9305	2.42	–
x2 = 0.9462	2.23	–
x2 = 0.9721	1.73	–

CCCCO + CCCC[n+]1ccn(C)c1.O=S(=O)([N-]S(=O)(=O)C(F)(F)F)C(F)(F)F
Settings	viscosity [mPa·s]
x1 = 1	2.6

ClCCl + CCCC[n+]1ccn(C)c1.O=S(=O)([N-]S(=O)(=O)C(F)(F)F)C(F)(F)F
Settings	electrical conductivity [S/m]	viscosity [mPa·s]
x1 = 0.0175	0.453	–
x1 = 0.1758	–	33.7
x1 = 0.243	0.454	–
x1 = 0.3232	–	21.8
x1 = 0.3949	0.464	–
x1 = 0.4152	0.539	–
x1 = 0.4391	–	15.41
x1 = 0.4625	0.586	–
x1 = 0.4718	0.634	–
x1 = 0.5413	0.657	–
x1 = 0.5646	–	10.01
x1 = 0.6165	1.08	–
x1 = 0.6861	1.18	–
x1 = 0.7283	–	4.25
x1 = 0.7345	1.33	–
x1 = 0.7725	1.47	–
x1 = 0.7751	1.37	–
x1 = 0.776	1.47	–
x1 = 0.8389	1.46	–
x1 = 0.9008	1.21	–
x1 = 0.9319	0.95	–
x1 = 0.9506	0.739	–
x1 = 0.9696	0.46	–
x1 = 1	–	0.433
x2 = 0.0163	0.242	–
x2 = 0.0187	0.287	–

CCCC[n+]1ccn(C)c1.O=S(=O)([N-]S(=O)(=O)C(F)(F)F)C(F)(F)F + CC(C)(C)O
Settings	viscosity [mPa·s]
x2 = 0	50.4

CCCC[n+]1ccn(C)c1.O=S(=O)([N-]S(=O)(=O)C(F)(F)F)C(F)(F)F + O
Settings	electrical conductivity [S/m]	viscosity [mPa·s]
x2 = 0.0012	0.416	–
x2 = 0.0014	0.412	–
x2 = 0.0053	0.412	–
x2 = 0.0135	0.431	–
x2 = 0.0273	0.444	–
x2 = 0.0442	–	46.9
x2 = 0.0533	0.444	–
x2 = 0.0737	0.466	–
x2 = 0.0832	–	42.8
x2 = 0.1171	0.494	–
x2 = 0.1253	–	37.2
x2 = 0.1429	–	35.4
x2 = 0.1439	0.52	–
x2 = 0.1721	–	36
x2 = 0.1733	0.549	–
x2 = 0.2119	0.583	–
x2 = 0.2222	–	33.1
x2 = 0.2436	0.61	–
x2 = 0.2523	0.599	–
x2 = 0.2556	–	31
x2 = 0.2559	0.614	–

CO + CCCC[n+]1ccn(C)c1.O=S(=O)([N-]S(=O)(=O)C(F)(F)F)C(F)(F)F
Settings	viscosity [mPa·s]
x1 = 1	0.544

CC(C)(C)O + CCCC[n+]1ccn(C)c1.O=S(=O)([N-]S(=O)(=O)C(F)(F)F)C(F)(F)F
Settings	electrical conductivity [S/m]	viscosity [mPa·s]
x1 = 0.2367	–	35.8
x1 = 0.3616	0.485	–
x1 = 0.401	0.488	–
x1 = 0.4577	0.497	–
x1 = 0.4791	0.5	–
x1 = 0.5125	0.503	–
x1 = 0.5277	–	20.8
x1 = 0.538	0.507	–
x1 = 0.5851	0.505	–
x1 = 0.7215	0.476	–
x1 = 0.785	0.377	–
x1 = 1	–	3.41

CCCC[n+]1ccn(C)c1.O=S(=O)([N-]S(=O)(=O)C(F)(F)F)C(F)(F)F + CC#N
Settings	electrical conductivity [S/m]	viscosity [mPa·s]
x2 = 0.1027	0.514	–
x2 = 0.1028	–	39.6
x2 = 0.1514	0.567	–
x2 = 0.2513	0.72	–
x2 = 0.3638	–	17.8
x2 = 0.4169	1.08	–
x2 = 0.5016	1.37	–
x2 = 0.5238	–	9.4
x2 = 0.8396	3.67	–
x2 = 0.9485	4.03	–
x2 = 0.9667	3.41	–
x2 = 0.9794	2.69	–

CCCC[n+]1ccn(C)c1.O=S(=O)([N-]S(=O)(=O)C(F)(F)F)C(F)(F)F + CCCCO
Settings	electrical conductivity [S/m]	viscosity [mPa·s]
x2 = 0.0121	0.408	–
x2 = 0.1048	–	41.5
x2 = 0.1229	0.477	–
x2 = 0.3394	0.578	–
x2 = 0.3437	–	22.9
x2 = 0.4228	0.633	–
x2 = 0.4428	0.667	–
x2 = 0.5066	–	15.2
x2 = 0.518	0.677	–
x2 = 0.545	0.677	–
x2 = 0.5556	0.676	–
x2 = 0.5882	0.675	–
x2 = 0.608	0.674	–
x2 = 0.6656	0.66	–
x2 = 0.6796	0.67	–
x2 = 0.7193	–	8.92
x2 = 0.7316	0.59	8.55
x2 = 0.7458	0.57	–
x2 = 0.7645	0.56	–
x2 = 0.7951	0.507	–
x2 = 0.8487	0.401	–
x2 = 0.8618	–	5.83
x2 = 0.878	0.349	–

CC#N + CCCC[n+]1ccn(C)c1.O=S(=O)([N-]S(=O)(=O)C(F)(F)F)C(F)(F)F
Settings	viscosity [mPa·s]
x1 = 1	0.37
